Results from patent US6156700A, “3-(1,2-Benzisothiazol- and isoxazol-5-yl)-2,4(1H,3H)-pyrimidinedione or thione and 3-(1,2-benzisothiazol- and isoxazol-5-yl)-4(3H)-pyrimidinone or thione herbicidal agents” (American Cyanmid Company, priority 1998, dated 2000).

Tests used:
[1] = system: Wheat, Winter, cv Riband, Triticum aestivum; experiment: Preemergence herbicidal evaluation, TRZAWR; assay type: in vivo; conditions: 0.2500 kg/ha
How it was run: (§1)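 Values are 0–9 visual ratings of stand, vigor, malformation, size, chlorosis and overall appearance relative to a control, scored 4 to 5 weeks after treatment. Test compound in aqueous acetone was sprayed onto soil right after seeding, at rates equivalent to about 0.0156–0.500 kg per hectare.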

CYPSE Flatsedge = experiment: Postemergence weed control, flooded paddy (Table IV); assay type: in vivo, Cyperus serotinus; parameters: scale not given here
How it was run: (§2)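 Rating scale scores taken 3–4 weeks post-treatment; compounds dosed in flood water (~0.0313–0.500 kg/ha) onto weeds 3–5 cm tall and 1.5–2.5 leaf rice under 1.5–3 cm standing water.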

[2] = system: Ragweed, Common, Ambrosia artemisifolia; experiment: Preemergence herbicidal evaluation, AMBEL; assay type: in vivo, L.; conditions: 0.2500 kg/ha
How it was run: as §1

[3] = system: SAGPY Arrowhead (Pygmaea); experiment: Preemergence weed control, flooded paddy (Table III); assay type: in vivo, Sagittaria pygmaea; parameters: scale not given here
Procedure: (§3) Preemergence herbicidal activity under flooded paddy conditions is determined as follows: plant seeds or propagating organs are planted in the top 0.5 cm of silt loam soil in 32 oz. plastic containers with a diameter of 10.5 cm and no drainage holes. Water is added to these containers and maintained at 1.5 to 3 cm above the soil surface for the duration of the experiment. The test compounds are applied as aqueous/acetone mixtures 50/50 v/v pipetted directly into the flood water to give the equivalent of about 0.0313 to 0.500 kg/ha of active ingredient. The treated containers are placed on greenhouse benches and cared for in accordance with conventional greenhouse procedures. Three to four weeks after treatment, the test is terminated and each container is examined and herbicidal effect rated according to the rating system provided in Example 185. The compounds evaluated are reported by compound number given in Example 185.

[4] = system: Sicklepod, Cassia obtusifolia; experiment: Preemergence herbicidal evaluation, CASOB; assay type: in vivo, L.; conditions: 0.2500 kg/ha
How it was run: as §1

Galium, Galium aparine = experiment: Preemergence herbicidal evaluation, GALAP; assay type: in vivo; conditions: 0.2500 kg/ha
Description: (§4) Results of herbicide evaluation are expressed on a rating scale (0-9). The scale is based upon a visual observation of plant stand, vigor, malformation, size, chlorosis and overall plant appearance as compared with a control.
(§5) The preemergence herbicidal activity of the test compounds of the present invention is exemplified by the following tests in which the seeds of a variety of monocotyledonous and dicotyledonous plants are separately mixed with potting soil and planted on top of approximately one inch of soil in separate pint cups. After planting, the cups are sprayed with the selected aqueous acetone solution containing test compound in sufficient quantity to provide the equivalent of about 0.0156 to 0.500 kg per hectare of test compound per cup. The treated cups are then placed on greenhouse benches, watered and cared for in accordance with conventional greenhouse procedures. From four to five weeks after treatment, the tests are terminated and each cup is examined and rated according to the rating system provided in Example 185.
(§6) The compounds evaluated are reported by compound number given in Example 185.

[5] = system: Morningglory Spp., Ipomoea Spp.; experiment: Preemergence herbicidal evaluation, IPOSS; assay type: in vivo; conditions: 0.2500 kg/ha
Description: as §4, §5, §6

[6] = system: Rice, Tebonnet, Oryza sativa; experiment: Preemergence herbicidal evaluation, ORYSAT; assay type: in vivo, (L.) Tebonnet; conditions: 0.2500 kg/ha
How it was run: as §1

[7] = system: Foxtail, Green, Setaria viridis; experiment: Postemergence herbicidal evaluation, SETVI; assay type: in vivo, (L.) Beau
How it was run: (§7)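 Approximately two-week-old seedlings received a spray of active compound equivalent to about 0.0157–0.500 kg/ha. The carrier was acetone/water (50/50) with 0.5% TWEEN 20. Plants were kept on greenhouse benches and assessed 0–9 versus control after four to five weeks.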

ORYSAT Rice, Tebonnet = experiment: Tolerance of transplanted rice to post-transplant application (Table III); assay type: in vivo, Oryza sativa; parameters: scale not given here; conditions: crop tolerance
Procedure: The tolerance of transplanted rice to post-transplanted herbicide applications is determined as follows: two ten-day-old rice seedlings (cv. Tebonnet) are transplanted into silt loam soil in 32 oz. plastic containers with a diameter of 10.5 cm and no drainage holes. After transplanting, the containers are flooded and the water level is maintained at 1.5 to 3 cm above the soil surface. Three days after transplanting, the flooded soil surface of the containers is treated with the selected aqueous/acetone 50/50 v/v mixture containing the test compounds to provide the equivalent of about 0.0313 to 0.500 kg/ha of active ingredient. The treated containers are placed on greenhouse benches, watered such that the water level is maintained as stated above, and cared for in accordance with conventional greenhouse procedures. Three to four weeks after treatment, the test is terminated and each container is examined and herbicidal effect rated according to the rating system provided in Example 185. The compounds evaluated are reported by compound number given in Example 185.

[8] = system: Sicklepod, Cassia obtusifolia; experiment: Postemergence herbicidal evaluation, CASOB; assay type: in vivo, L.
How it was run: as §7

[9] = system: ECHORC Watergrass (Calif.); experiment: Postemergence weed control, flooded paddy (Table IV); assay type: in vivo, Echinochloa oryzoides; parameters: scale not given here
How it was run: as §2

[10] = system: Wheat, Winter, cv Riband, Triticum aestivum; experiment: Postemergence herbicidal evaluation, TRZAWR; assay type: in vivo
How it was run: as §7

[11] = system: Rice, Tebonnet, Oryza sativa; experiment: Postemergence herbicidal evaluation, ORYSAT; assay type: in vivo, (L.) Tebonnet
How it was run: as §7

CYPIR Rice Flatsedge = experiment: Postemergence weed control, flooded paddy (Table IV); assay type: in vivo, Cyperus iria; parameters: scale not given here
How it was run: as §2

[12] = system: ECHORC Watergrass (Calif.); experiment: Preemergence weed control, flooded paddy (Table III); assay type: in vivo, Echinochloa oryzoides; parameters: scale not given here
Procedure: as §3

[13] = system: Lambsquarters, Common, Chenopodium album; experiment: Preemergence herbicidal evaluation, CHEAL; assay type: in vivo, L.; conditions: 0.2500 kg/ha
Description: as §4, §5, §6

SMILES | herbicide rating (0-9) [1] | herbicidal effect rating (CYPSE Flatsedge; 0.1250 kg/ha) | herbicidal effect rating (CYPSE Flatsedge; 0.2500 kg/ha) | herbicidal effect rating (CYPSE Flatsedge; 0.5000 kg/ha) | herbicide rating (0-9) [2] | herbicidal effect rating ([3]; 0.0625 kg/ha) | herbicidal effect rating ([3]; 0.1250 kg/ha) | herbicidal effect rating ([3]; 0.2500 kg/ha) | herbicidal effect rating ([3]; 0.5000 kg/ha) | herbicide rating (0-9) [4] | herbicide rating (0-9) (Galium, Galium aparine) | herbicide rating (0-9) [5] | herbicide rating (0-9) [6] | herbicide rating (0-9) ([7]; 0.0630 kg/ha) | herbicide rating (0-9) ([7]; 0.2500 kg/ha) | herbicidal effect rating (ORYSAT Rice, Tebonnet; 0.0625 kg/ha) | herbicidal effect rating (ORYSAT Rice, Tebonnet; 0.1250 kg/ha) | herbicidal effect rating (ORYSAT Rice, Tebonnet; 0.2500 kg/ha) | herbicidal effect rating (ORYSAT Rice, Tebonnet; 0.5000 kg/ha) | herbicide rating (0-9) ([8]; 0.0630 kg/ha) | also measured
Cc1nsc2ccc(-n3c(=O)cc(C(F)(F)F)n(C)c3=O)cc12 [Compound 6, 1-Methyl-3-(3-methyl-1,2-benzisothiazol-5-yl)-6-(trifluoromethyl)-2,4(1H,3H)-pyrimidinedione] | 8.0 | 7.0 | 7.0 | 9.0 | 9.0 | 4.0 | 7.0 | 7.0 | 9.0 | 9.0 | 9.0 | 9.0 | 8.0 | 2.0 | 9.0 | 8.0 | 8.0 | 8.0 | 8.0 | 2.5 | herbicide rating (0-9) ([8]; 0.2500 kg/ha): 8.0; herbicidal effect rating ([9]; 0.1250 kg/ha): 9.0; herbicidal effect rating ([9]; 0.2500 kg/ha): 9.0; herbicidal effect rating ([9]; 0.5000 kg/ha): 9.0; herbicide rating (0-9) ([10]; 0.0630 kg/ha): 1.5; herbicide rating (0-9) ([10]; 0.2500 kg/ha): 5.0; herbicide rating (0-9) ([11]; 0.0630 kg/ha): 1.8; herbicide rating (0-9) ([11]; 0.2500 kg/ha): 5.0; herbicidal effect rating (CYPIR Rice Flatsedge; 0.1250 kg/ha): 9.0; herbicidal effect rating (CYPIR Rice Flatsedge; 0.2500 kg/ha): 9.0; herbicidal effect rating (CYPIR Rice Flatsedge; 0.5000 kg/ha): 9.0; herbicidal effect rating ([12]; 0.0625 kg/ha): 6.0; herbicidal effect rating ([12]; 0.1250 kg/ha): 8.0; herbicidal effect rating ([12]; 0.2500 kg/ha): 9.0; herbicidal effect rating ([12]; 0.5000 kg/ha): 9.0; herbicide rating (0-9) [13]: 9.0
COC(=O)COc1ccc(C)cc1-c1nsc2ccc(-n3c(=O)cc(C(F)(F)F)n(C)c3=O)cc12 [Compound 2, Methyl {{2-{5-[3,6-dihydro-3-methyl-4-(trifluoromethyl) -2,6-dioxo-1(2H)-pyrimidinyl]-1,2-benzisothiazol-3-yl]-p-tolyl}oxy}acetate] | 4.0 | 0.0 | 0.0 | 0.0 | 9.0 | 0.0 | 2.0 | 4.0 | 9.0 | 9.0 | 9.0 | 9.0 | 7.7 | 9.0 | 9.0 | 3.0 | 3.0 | 5.0 | 9.0 | 6.5 | herbicidal effect rating ([3]; 0.0313 kg/ha): 0.0; herbicidal effect rating (ORYSAT Rice, Tebonnet; 0.0313 kg/ha): 2.0; herbicide rating (0-9) ([8]; 0.2500 kg/ha): 9.0; herbicidal effect rating ([9]; 0.1250 kg/ha): 7.0; herbicidal effect rating ([9]; 0.2500 kg/ha): 9.0; herbicidal effect rating ([9]; 0.5000 kg/ha): 9.0; herbicide rating (0-9) ([10]; 0.0630 kg/ha): 7.2; herbicide rating (0-9) ([10]; 0.2500 kg/ha): 9.0; herbicide rating (0-9) ([11]; 0.0630 kg/ha): 7.8; herbicide rating (0-9) ([11]; 0.2500 kg/ha): 9.0; herbicidal effect rating (CYPIR Rice Flatsedge; 0.1250 kg/ha): 9.0; herbicidal effect rating (CYPIR Rice Flatsedge; 0.2500 kg/ha): 9.0; herbicidal effect rating (CYPIR Rice Flatsedge; 0.5000 kg/ha): 9.0; herbicidal effect rating ([12]; 0.0313 kg/ha): 9.0; herbicidal effect rating ([12]; 0.0625 kg/ha): 9.0; herbicidal effect rating ([12]; 0.1250 kg/ha): 9.0; herbicidal effect rating ([12]; 0.2500 kg/ha): 9.0; herbicidal effect rating ([12]; 0.5000 kg/ha): 9.0; herbicide rating (0-9) [13]: 9.0
